Earlier results as cited in patent US10369118B2, “Method of reducing scarring” (Cole Research & Design, Inc., priority 2013, dated 2019).

How the values were obtained:
keratinocytes = settings: appear to be cytotoxic

## Oc1ccc(/C=C/c2cc(O)cc(O)c2)cc1 [resveratrol, trans-3,4′,5-trihydroxystilbene]
keratinocytes
  concentrations cytotoxic to keratinocytes: above 100 micromoles/liter
other
  solubility in water: very low solubility
